Assay results published in patent publication US20230255987A1, “AQUEOUS PHARMACEUTICAL COMPOSITION COMPRISING A P2Y12 RECEPTOR ANTAGONIST” (Idorsia Pharmaceuticals Ltd, priority 2020, published 2023).

What was measured:
[1] = Long-term stability of COMPOUND in 60 mM arginine buffer under different storage conditions (UPLC); format: physicochemical
Method: In a 10 L glass reactor, L-arginine (104 g, 0.60 mol) was added under stirring to water for injection (7.01 kg). COMPOUND hydrochloride (339 g, 0.52 mol) was added portion wise to the solution and the pH value was adjusted to pH=9.0 by addition of 1.0 M aqueous NaOH solution (1.18 kg). Water for injection was added to a total weight of the solution of 10.15 kg.
For stability testing the test samples were prepared by filling 0.54 mL of the above solution into prefillable 1 mL glass syringes with stacked in needle and stored under the conditions given in table 14 and 15. The samples were analysed after the given timepoints by ultra-performance liquid chromatography (UPLC) using the following conditions: • Equipment: • UPLC system, with data acquisition system and UV detection
Mobile phase A: Weigh 3.08 g of ammonium acetate and 3.26 g of ammonium hexafluorophosphate in a 2 L bottle. Dissolve in 1900 mL H2O. Add 100 mL of acetonitrile.
Mobile phase B: Weigh 0.77 g of ammonium acetate in a 1 L bottle. Dissolve in 50 mL H2O. Add 950 mL of acetonitrile.
Diluent: Mix 920 mL of Mobile Phase A with 80 mL Mobile phase B.
Reference standard solution: 0.32 mg/mL of COMPOUND reference standard in diluent.
Sample solution: The samples were diluted to 0.32 mg/mL of COMPOUND (based on amount of COMPOUND in the initial solution) with diluent
Column: 100 mm×3.0 mm, 3 μm C18 column (e.g. YMC Triart C18 ExRS)
Detection wavelength: 246 nm

[2] = Stability of COMPOUND in aqueous solution at different pH values in the absence of a buffer (HPLC); format: physicochemical
Method: For instance, a solution of COMPOUND (32 mg/mL) in water at pH 7 (adjusted with aqueous NaOH solution) contained only 33.5% COMPOUND, but 65.2% (R)-2-(6-((S)-3-methoxypyrrolidin-1-yl)-2-phenylpyrimidine-4-carboxamido)-3-phosphonopropanoic acid (hereinafter DEGRADATION COMPOUND) if stored at 60° C. for 1 week (98.6% COMPOUND at t=0, i.e. immediately after preparation of the solution). The amount of DEGRADATION COMPOUND dropped to 24.4% and 10.0% for corresponding aqueous solutions stored under the same conditions but adjusted to pH 8.0 and 9.0, respectively.
(§1) Sample Preparation for High Performance Liquid Chromatography and Method Used • 20 μL of the respective aqueous pharmaceutical composition was filled into a HPLC vial. • 980 μL water was added (dilution factor 50) prior HPLC analysis. • HPLC-UV method used: • HPLC system: High pressure mixing Shimadzu Nexera X2 • Flow: 1.5 mL/min • Column temperature: 50° C. • Autosampler temperature: 25° C. • Injection volume: 1 μL • Column: Phenomenex Gemini 5.0 μm 110 Å, 50×2.0 mm (n° 184) • Wavelength: DAD+250 nm • Solvent A: tris(hydroxymethyl)aminomethane buffer 50 mM pH 9 (adjusted with HCl)+5% (v/v) acetonitrile • Solvent B: Acetonitrile+5% (v/v) tris(hydroxymethyl)aminomethane buffer 50 mM pH 9 (adjusted with HCl) • Gradient: […]
Aqueous formulations containing 32 mg/mL (52 mM) COMPOUND were titrated to pH 7.0, 8.0, and 9.0 using aqueous 1N NaOH solution.
The different formulations were filled into 1 mL sterile, pre-fillable glass syringes after sterile filtration. Samples were analyzed at t=0 and after 1-week storage at 60° C.

[3] = tested on: platelet aggregation; conditions: 15 minutes after subcutaneous administration, doses of 8 mg, 16 mg and 32 mg; cited from earlier work
[4] = Stability of COMPOUND in aqueous solution at pH 9.0 with boric acid buffer at different buffer concentrations, 75° C.; format: physicochemical
Method: as §1
Stability of COMPOUND in aqueous solution at pH 9.0 in the presence of boric acid buffer at different buffer concentrations
Formulation compositions assessing the impact of buffer capacity on formulation stability

[5] = tested on: platelet; conditions: patients with AMI, cited from earlier work
[6] = rat, at equivalent antithrombotic efficacy, versus ticagrelor; cited from earlier work
[7] = pH shift of unbuffered, pH-adjusted aqueous solution of COMPOUND on storage; format: physicochemical; conditions: initial pH 9.0, 2 days at 70° C.

## CCCCOC(=O)N1CCN(C(=O)[C@H](CP(=O)(O)O)NC(=O)c2cc(N3CC[C@H](OC)C3)nc(-c3ccccc3)n2)CC1 [COMPOUND, 4-((R)-2-{[6-((S)-3-methoxy-pyrrolidin-1-yl)-2-phenyl-pyrimidine-4-carbonyl]-amino}-3-phosphono-propionyl)-piperazine-1-carboxylic acid butyl ester]
[1]; 5° C., 1 month
  Amount of COMPOUND in the test samples: 16.9 mg
[1]; 5° C., 3 months
  Amount of COMPOUND in the test samples: 16.8 mg
[1]; 5° C., 6 months
  Amount of COMPOUND in the test samples: 16.6 mg
[1]; 5° C., initial
  Amount of COMPOUND in the test samples: 16.9 mg
[1]; 25° C./60% RH, 1 month
  Amount of COMPOUND in the test samples: 16.8 mg
[1]; 25° C./60% RH, 3 months
  Amount of COMPOUND in the test samples: 16.4 mg
[1]; 25° C./60% RH, 6 months
  Amount of COMPOUND in the test samples: 16.2 mg
[1]; 25° C./60% RH, 12 months
  Amount of COMPOUND in the test samples: 15.9 mg
[1]; 25° C./60% RH, initial
  Amount of COMPOUND in the test samples: 16.9 mg
[1]; 30° C./75% RH, 1 month
  Amount of COMPOUND in the test samples: 16.7 mg
[1]; 30° C./75% RH, 3 months
  Amount of COMPOUND in the test samples: 16.2 mg
[1]; 30° C./75% RH, 6 months
  Amount of COMPOUND in the test samples: 15.9 mg
[1]; 30° C./75% RH, 12 months
  Amount of COMPOUND in the test samples: 15.2 mg
[1]; 30° C./75% RH, initial
  Amount of COMPOUND in the test samples: 16.9 mg
[1]; 40° C./75% RH, 1 month
  Amount of COMPOUND in the test samples: 16.2 mg
[1]; 40° C./75% RH, 3 months
  Amount of COMPOUND in the test samples: 15.1 mg
[1]; 40° C./75% RH, 6 months
  Amount of COMPOUND in the test samples: 13.3 mg
[1]; 40° C./75% RH, initial
  Amount of COMPOUND in the test samples: 16.9 mg
[2]; 32 mg/mL in water, pH 7 (NaOH), 60° C. for 1 week
  Content of COMPOUND: 33.5%
[2]; 32 mg/mL in water, pH 7 (NaOH), t=0
  Content of COMPOUND: 98.6%
[2]; no buffer, pH 7.0, t = 0
  Content of COMPOUND: 98.55 Area %
[2]; no buffer, pH 7.0, t = 1 week at 60° C.
  Content of COMPOUND: 33.5 Area %
[2]; no buffer, pH 8.0, t = 0
  Content of COMPOUND: 98.65 Area %
[2]; no buffer, pH 8.0, t = 1 week at 60° C.
  Content of COMPOUND: 74.7 Area %
[2]; no buffer, pH 9.0, t = 0
  Content of COMPOUND: 98.60 Area %
[2]; no buffer, pH 9.0, t = 1 week at 60° C.
  Content of COMPOUND: 88.7 Area %
[3]
  inhibition of platelet aggregation: more than 85%
[4]; 0 mM B(OH)3, pH 9.0, 75° C., 0 h
  Content of COMPOUND: 100.00 Area %
[4]; 0 mM B(OH)3, pH 9.0, 75° C., 24 h
  Content of COMPOUND: 96.16 Area %
[4]; 0 mM B(OH)3, pH 9.0, 75° C., 48 h
  Content of COMPOUND: 89.46 Area %
[4]; 0 mM B(OH)3, pH 9.0, 75° C., 120 h
  Content of COMPOUND: 64.89 Area %
[4]; 0 mM B(OH)3, pH 9.0, 75° C., 168 h
  Content of COMPOUND: 49.45 Area %
[4]; 20 mM B(OH)3, pH 9.0, 75° C., 0 h
  Content of COMPOUND: 100.00 Area %
[4]; 20 mM B(OH)3, pH 9.0, 75° C., 24 h
  Content of COMPOUND: 94.61 Area %
[4]; 20 mM B(OH)3, pH 9.0, 75° C., 48 h
  Content of COMPOUND: 90.72 Area %
[4]; 20 mM B(OH)3, pH 9.0, 75° C., 120 h
  Content of COMPOUND: 74.84 Area %
[4]; 20 mM B(OH)3, pH 9.0, 75° C., 168 h
  Content of COMPOUND: 62.18 Area %
[4]; 60 mM B(OH)3, pH 9.0, 75° C., 0 h
  Content of COMPOUND: 100.00 Area %
[4]; 60 mM B(OH)3, pH 9.0, 75° C., 24 h
  Content of COMPOUND: 96.60 Area %
[4]; 60 mM B(OH)3, pH 9.0, 75° C., 48 h
  Content of COMPOUND: 90.21 Area %
[4]; 60 mM B(OH)3, pH 9.0, 75° C., 120 h
  Content of COMPOUND: 78.47 Area %
[4]; 60 mM B(OH)3, pH 9.0, 75° C., 168 h
  Content of COMPOUND: 68.96 Area %
[4]; 100 mM B(OH)3, pH 9.0, 75° C., 0 h
  Content of COMPOUND: 100.00 Area %
[4]; 100 mM B(OH)3, pH 9.0, 75° C., 24 h
  Content of COMPOUND: 97.89 Area %
[4]; 100 mM B(OH)3, pH 9.0, 75° C., 48 h
  Content of COMPOUND: 93.78 Area %
[4]; 100 mM B(OH)3, pH 9.0, 75° C., 120 h
  Content of COMPOUND: 77.85 Area %
[4]; 100 mM B(OH)3, pH 9.0, 75° C., 168 h
  Content of COMPOUND: 71.33 Area %
[5]; single-dose subcutaneous
  antiplatelet response: profound, rapid, and dose-related antiplatelet response
[5]
  safety of single-dose subcutaneous administration: safe
[6]
  blood loss: significantly less blood loss than ticagrelor
[7]
  pH value after storage: 8.5
